What was measured:
[1] = tested on: cats; experiment: Study 2: behavior scores of paired unfamiliar cats, CON litter Day 1 then RP litter Day 2; format: in vivo; set-up: litter box weight, RP after / litter box weight, Change (RP): unit not given here; settings: for Average aggression score by pair, Day 2 (RP): total possible 48
Method: During the studies, cat behavior was captured on video for the duration of the 24- or 48-hour period depending on the specific study. Red lights were used at night to allow for continuous observation. A scan sampling method was used to record cat behaviors each 5 minutes. The recorded videos were subsequently reviewed and analyzed in each 5-minute scan sample, with tape playing 30 frames per second. At each 5-minute time point, each cat was categorized as anxious or relaxed. Aggression or litter box usage occurred between 5-minute periods were also noted. Because each scan sample is of 5-minute period, a total of 24 observations for each individual behavior are possible for each 2 hours. The instances of an individual behavior (An; n=1, 2, 3, . . . 24) in each 5-minute period were totaled for instances in each 2 hours (Bm=ΣAn, n=1, 2, 3, . . . 24; m=1, 2, 3, . . . 12) over 24 hours. The behavioral score for each 2-hour period is ΣAn/24 (n=1, 2, 3, . . . , 24). A behavioral score for a 24-hour period is ΣBm/12 (m=1, 2, 3, . . . 12). Among all behavior assessed, aggression, in-litter-box and anxiety were scored as yes or no during each 5 minutes (An=1 or 0; n=1, 2, 3, . . . 24). In addition, anxiety was measured as a percentage of the total time that the cat was experiencing anxiety. As such the anxiety related behavioral score for a 24-hour period is 0.347×ΣBm (%) (Bm=ΣAn(%), n=1, 2, 3, . . . 24; m=1, 2, 3, . . . 12), which reflects the percentage of time over 24 hours that the cats are experiencing anxiety. Moreover, when ranking cat pairs based on their level of aggression, the sum of the aggression scores of the individual cats in the pair was used to rank the cat pairs. Behavior data (behavioral scores) were further analyzed by Least Squares Analysis of variance using SAS (2011, SAS Inst., Inc., Cary, N.C.) software and the p-diff general linear model procedures to assess treatment differences within each time period. This statistical model included effects of treatment (TRT), cat-pair within treatment (TRT*CAT), time (HR), treatment by time (TRT*HR) and residual error (SE; used to test remaining effects). The previous study established that cats are attracted to litter treated with 2-methylbut-2-enal. In this study, 48 cats were used to determine the effect of litter treated with 2-methylbut-2-enal (RP) to the cat's various behaviors listed in Table 5. Litter was prepared in two batches, by mixing beads about 0.065″ in length both with and without 2-methylbut-2-enal. Blank beads were mixed thoroughly into one batch of litter so that the litter comprised about 3% (w/w) beads to form the control litter (CON). Similarly, beads containing a pheromone composition comprising 0.02% (w/w) 2-methylbut-2-enal (formed in accordance with Example 2 or 3) were mixed thoroughly into the other batch of litter so that the litter also comprised 3% (w/w) beads to form the treated litter (RP). Each batch of the litter was divided into 3 lb. aliquots that were ready to be tested. The 48 cats were randomly grouped into 24 same-sex pairs, which were divided into two groups with 12 pairs in each. The cats of each pair had either been housed individually or in groups of two previously, but had not been placed together prior to this study. As such, each cat was made sure to pair with an unfamiliar cat for the duration of the study. The first 12 pairs of two unfamiliar cats were tested over a 48-hour period. Subsequently, all chambers used were sanitized and aired out, and then the second group of 12 pair of cats was tested. Each pair of cats was placed in a kennel containing one food dish, one water dish, and one litter box. […]

[2] = tested on: cats; experiment: Example 6: animal litter composition with molded particles for use with cats; format: in vivo; settings: animal litter composition comprising about 0.0004% to about 0.0006% (w/w) 2-methylbut-2-enal; most evident in the first 6-8 hours
From the text: An animal litter composition comprising a pheromone composition can be prepared by first forming molded particles from a shaped polymeric matrix prepared in accordance with Example 4 or 5, wherein the molded particles comprise a pheromone composition comprising 2-methylbut-2-enal. The molded particles can then be combined with, mixed into, or otherwise incorporated into litter material upon use of the litter. An animal litter composition of about 2 lbs. to about 6 lbs. will comprise between about 0.01% and about 15% (w/w) molded particles (the molded particles comprising about 0.02% (w/w) 2-methylbut-2-enal) in order to be effective in alleviating litter dominant behavior and associated aggression and anxiety in cats exposed to the pheromone composition as released from the litter. For example, an animal litter comprising about 2% to about 3% molded particles will result in the litter comprising between about 0.0004% (w/w) and about 0.0006% (w/w) 2-methylbut-2-enal. Accordingly, it will be observed that an animal litter composition comprising about 0.0004% to about 0.0006% (w/w) 2-methylbut-2-enal will elicit a positive behavior modification in cats, which behavior modification can last at least 24 hours, and is most evident in the first 6-8 hours following exposure of the animal to the animal litter composition.

Question: Which results are given for `C/C=C(\C)C=O` [RP, 2-methylbut-2-enal]?
Answer: reduction of anxiety of the cats in pairs ([1]; Day 1 untreated litter (21%) to Day 2 treated litter (12%)): ~50%; Average behavior score: Head in food/H2O dish ([1]; Day 2, RP litter (3% (w/w) beads with 0.02% (w/w) 2-methylbut-2-enal), 24 cat pairs, Day 1 Con 0.90): 1.05; Average behavior score: Grooming other ([1]; Day 2, RP litter, 24 cat pairs, Day 1 Con 0.03): 0.01; Average behavior score: In litter box - using ([1]; Day 2, RP litter, 24 cat pairs, Day 1 Con 0.07): 0.27; Average behavior score: Neutral social interaction ([1]; Day 2, RP litter, 24 cat pairs, Day 1 Con 0.48): 0.33; Average behavior score: Play ([1]; Day 2, RP litter, 24 cat pairs, Day 1 Con 0.65): 0.52; Average behavior score: Grooming self ([1]; Day 2, RP litter, 24 cat pairs, Day 1 Con 0.70): 0.77; Average behavior score: Lying/sitting - touching ([1]; Day 2, RP litter, 24 cat pairs, Day 1 Con 0.89): 0.98; Average behavior score: Sleeping ([1]; Day 2, RP litter, 24 cat pairs, Day 1 Con 1.98): 2.71; Average behavior score: In litter box - not using ([1]; Day 2, RP litter, 24 cat pairs, Day 1 Con 2.10): 2.73; Average behavior score: Aggression ([1]; Day 2, RP litter, 24 cat pairs, Day 1 Con 3.00): 1.95; Average behavior score: Locomotion ([1]; Day 2, RP litter, 24 cat pairs, Day 1 Con 3.19): 4.66; Average behavior score: Lying/sitting - not touching ([1]; Day 2, RP litter, 24 cat pairs, Day 1 Con 17.0): 15.4; Average behavior score: Anxiety (%) ([1]; Day 2, RP litter, 24 cat pairs, percentage of time over 24 hours, Day 1 Con 21.0): 12.0%; Average aggression score by pair, Day 2 (RP) ([1]; Pair 1 (M, M), rank 6, Day 1 (con) 2.92): 0.13; Average aggression score by pair, Day 2 (RP) ([1]; Pair 2 (M, M), rank 24, Day 1 (con) 0.00): 0.00; Average aggression score by pair, Day 2 (RP) ([1]; Pair 3 (M, M), rank 4, Day 1 (con) 6.33): 3.42; Average aggression score by pair, Day 2 (RP) ([1]; Pair 4 (M, M), rank 3, Day 1 (con) 6.50): 0.08; Average aggression score by pair, Day 2 (RP) ([1]; Pair 5 (M, M), rank 5, Day 1 (con) 3.58): 4.67; Average aggression score by pair, Day 2 (RP) ([1]; Pair 6 (M, M), rank 13, Day 1 (con) 1.08): 0.13; Average aggression score by pair, Day 2 (RP) ([1]; Pair 7 (F, F), rank 20, Day 1 (con) 0.04): 0.33; Average aggression score by pair, Day 2 (RP) ([1]; Pair 8 (F, F), rank 14, Day 1 (con) 0.50): 0.88; Average aggression score by pair, Day 2 (RP) ([1]; Pair 9 (F, F), rank 19, Day 1 (con) 0.08): 0.08; Average aggression score by pair, Day 2 (RP) ([1]; Pair 10 (F, F), rank 2, Day 1 (con) 10.13): 3.25; Average aggression score by pair, Day 2 (RP) ([1]; Pair 11 (F, F), rank 12, Day 1 (con) 1.63): 1.50; Average aggression score by pair, Day 2 (RP) ([1]; Pair 12 (F, F), rank 23, Day 1 (con) 0.00): 0.00; Average aggression score by pair, Day 2 (RP) ([1]; Pair 13 (M, M), rank 1, Day 1 (con) 27.00): 18.25; Average aggression score by pair, Day 2 (RP) ([1]; Pair 14 (M, M), rank 8, Day 1 (con) 2.54): 2.58; Average aggression score by pair, Day 2 (RP) ([1]; Pair 15 (M, M), rank 7, Day 1 (con) 2.54): 3.83; Average aggression score by pair, Day 2 (RP) ([1]; Pair 16 (C, M), rank 11, Day 1 (con) 1.63): 0.71; Average aggression score by pair, Day 2 (RP) ([1]; Pair 17 (M, M), rank 9, Day 1 (con) 2.46): 2.13; Average aggression score by pair, Day 2 (RP) ([1]; Pair 18 (M, M), rank 10, Day 1 (con) 2.38): 1.88; Average aggression score by pair, Day 2 (RP) ([1]; Pair 19 (M, M), rank 15, Day 1 (con) 0.33): 0.00; Average aggression score by pair, Day 2 (RP) ([1]; Pair 20 (F, F), rank 22, Day 1 (con) 0.00): 0.21; Average aggression score by pair, Day 2 (RP) ([1]; Pair 21 (F, F), rank 18, Day 1 (con) 0.08): 0.92; Average aggression score by pair, Day 2 (RP) ([1]; Pair 22 (F, F), rank 16, Day 1 (con) 0.17): 0.13; Average aggression score by pair, Day 2 (RP) ([1]; Pair 23 (F, F), rank 17, Day 1 (con) 0.08): 1.00; Average aggression score by pair, Day 2 (RP) ([1]; Pair 24 (F, F), rank 21, Day 1 (con) 0.00): 0.63; litter box weight, Change (RP) ([1]; RP after minus RP before, CON change 0.02): 0.11; Changes in litter box weights, % difference ([1]; RP change versus CON change): 438%; litter box weight, RP after ([1]; after 24 hours of use, RP before 2.1): 2.21; reduction of aggression from Day 1 to Day 2 ([1]; aggression score 3.0 to 1.95 after exposure to RP litter): 68.3%; increase of litter box use ([1]; score 0.07 (Day 1 CON) to 0.27 (Day 2 RP)): 386%; duration of positive behavior modification in cats [2]: at least 24 hours

Source: patent publication US10806121B2, “Animal litter containing a pheromone composition” (Sergeant's Pet Care Products, LLC, priority 2014, dated 2020)
